{
  "source": "ChEMBL document CHEMBL5465560",
  "about": "“Selectivity Literature for EUbOPEN Chemogenomic Library” (2024)",
  "key": {"[1]": {"target": "T1, cGMP-dependent protein kinase 1 (Homo sapiens) (UniProt Q13976)", "T1 sequence (whole entry)": "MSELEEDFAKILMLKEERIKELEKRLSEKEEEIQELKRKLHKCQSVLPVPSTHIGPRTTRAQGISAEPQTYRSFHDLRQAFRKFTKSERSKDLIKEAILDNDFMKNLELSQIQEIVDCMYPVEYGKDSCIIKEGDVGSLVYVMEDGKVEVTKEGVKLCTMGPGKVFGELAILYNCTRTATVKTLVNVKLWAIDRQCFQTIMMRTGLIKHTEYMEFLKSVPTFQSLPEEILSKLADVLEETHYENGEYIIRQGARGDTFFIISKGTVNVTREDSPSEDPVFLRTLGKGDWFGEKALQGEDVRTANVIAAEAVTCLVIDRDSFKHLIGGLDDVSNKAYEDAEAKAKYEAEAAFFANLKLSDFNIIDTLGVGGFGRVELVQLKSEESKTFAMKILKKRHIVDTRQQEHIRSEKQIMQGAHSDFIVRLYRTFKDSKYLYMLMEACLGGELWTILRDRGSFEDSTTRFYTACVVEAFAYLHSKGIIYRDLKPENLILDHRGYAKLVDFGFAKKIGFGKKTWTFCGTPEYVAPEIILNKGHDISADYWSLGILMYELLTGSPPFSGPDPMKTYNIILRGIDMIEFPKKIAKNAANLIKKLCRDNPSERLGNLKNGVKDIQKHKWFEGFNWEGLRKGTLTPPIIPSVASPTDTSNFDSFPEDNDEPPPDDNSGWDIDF", "assay": "Selectivity interaction (KinaseProfiler screening (Millipore)) EUB0000601a PRKG1", "settings": "at 3 µM"}, "[2]": {"target": "Adenosine receptor A2a (Homo sapiens, UniProt P29274)", "assay": "Selectivity interaction (Eurofins CEREP Diversity Profile (receptors and ion channels)) EUB0000279b ADORA2A", "settings": "at 10 µM"}, "[3]": {"target": "Proto-oncogene tyrosine-protein kinase ROS (Homo sapiens) (UniProt P08922)", "sequence (P08922 whole entry)": "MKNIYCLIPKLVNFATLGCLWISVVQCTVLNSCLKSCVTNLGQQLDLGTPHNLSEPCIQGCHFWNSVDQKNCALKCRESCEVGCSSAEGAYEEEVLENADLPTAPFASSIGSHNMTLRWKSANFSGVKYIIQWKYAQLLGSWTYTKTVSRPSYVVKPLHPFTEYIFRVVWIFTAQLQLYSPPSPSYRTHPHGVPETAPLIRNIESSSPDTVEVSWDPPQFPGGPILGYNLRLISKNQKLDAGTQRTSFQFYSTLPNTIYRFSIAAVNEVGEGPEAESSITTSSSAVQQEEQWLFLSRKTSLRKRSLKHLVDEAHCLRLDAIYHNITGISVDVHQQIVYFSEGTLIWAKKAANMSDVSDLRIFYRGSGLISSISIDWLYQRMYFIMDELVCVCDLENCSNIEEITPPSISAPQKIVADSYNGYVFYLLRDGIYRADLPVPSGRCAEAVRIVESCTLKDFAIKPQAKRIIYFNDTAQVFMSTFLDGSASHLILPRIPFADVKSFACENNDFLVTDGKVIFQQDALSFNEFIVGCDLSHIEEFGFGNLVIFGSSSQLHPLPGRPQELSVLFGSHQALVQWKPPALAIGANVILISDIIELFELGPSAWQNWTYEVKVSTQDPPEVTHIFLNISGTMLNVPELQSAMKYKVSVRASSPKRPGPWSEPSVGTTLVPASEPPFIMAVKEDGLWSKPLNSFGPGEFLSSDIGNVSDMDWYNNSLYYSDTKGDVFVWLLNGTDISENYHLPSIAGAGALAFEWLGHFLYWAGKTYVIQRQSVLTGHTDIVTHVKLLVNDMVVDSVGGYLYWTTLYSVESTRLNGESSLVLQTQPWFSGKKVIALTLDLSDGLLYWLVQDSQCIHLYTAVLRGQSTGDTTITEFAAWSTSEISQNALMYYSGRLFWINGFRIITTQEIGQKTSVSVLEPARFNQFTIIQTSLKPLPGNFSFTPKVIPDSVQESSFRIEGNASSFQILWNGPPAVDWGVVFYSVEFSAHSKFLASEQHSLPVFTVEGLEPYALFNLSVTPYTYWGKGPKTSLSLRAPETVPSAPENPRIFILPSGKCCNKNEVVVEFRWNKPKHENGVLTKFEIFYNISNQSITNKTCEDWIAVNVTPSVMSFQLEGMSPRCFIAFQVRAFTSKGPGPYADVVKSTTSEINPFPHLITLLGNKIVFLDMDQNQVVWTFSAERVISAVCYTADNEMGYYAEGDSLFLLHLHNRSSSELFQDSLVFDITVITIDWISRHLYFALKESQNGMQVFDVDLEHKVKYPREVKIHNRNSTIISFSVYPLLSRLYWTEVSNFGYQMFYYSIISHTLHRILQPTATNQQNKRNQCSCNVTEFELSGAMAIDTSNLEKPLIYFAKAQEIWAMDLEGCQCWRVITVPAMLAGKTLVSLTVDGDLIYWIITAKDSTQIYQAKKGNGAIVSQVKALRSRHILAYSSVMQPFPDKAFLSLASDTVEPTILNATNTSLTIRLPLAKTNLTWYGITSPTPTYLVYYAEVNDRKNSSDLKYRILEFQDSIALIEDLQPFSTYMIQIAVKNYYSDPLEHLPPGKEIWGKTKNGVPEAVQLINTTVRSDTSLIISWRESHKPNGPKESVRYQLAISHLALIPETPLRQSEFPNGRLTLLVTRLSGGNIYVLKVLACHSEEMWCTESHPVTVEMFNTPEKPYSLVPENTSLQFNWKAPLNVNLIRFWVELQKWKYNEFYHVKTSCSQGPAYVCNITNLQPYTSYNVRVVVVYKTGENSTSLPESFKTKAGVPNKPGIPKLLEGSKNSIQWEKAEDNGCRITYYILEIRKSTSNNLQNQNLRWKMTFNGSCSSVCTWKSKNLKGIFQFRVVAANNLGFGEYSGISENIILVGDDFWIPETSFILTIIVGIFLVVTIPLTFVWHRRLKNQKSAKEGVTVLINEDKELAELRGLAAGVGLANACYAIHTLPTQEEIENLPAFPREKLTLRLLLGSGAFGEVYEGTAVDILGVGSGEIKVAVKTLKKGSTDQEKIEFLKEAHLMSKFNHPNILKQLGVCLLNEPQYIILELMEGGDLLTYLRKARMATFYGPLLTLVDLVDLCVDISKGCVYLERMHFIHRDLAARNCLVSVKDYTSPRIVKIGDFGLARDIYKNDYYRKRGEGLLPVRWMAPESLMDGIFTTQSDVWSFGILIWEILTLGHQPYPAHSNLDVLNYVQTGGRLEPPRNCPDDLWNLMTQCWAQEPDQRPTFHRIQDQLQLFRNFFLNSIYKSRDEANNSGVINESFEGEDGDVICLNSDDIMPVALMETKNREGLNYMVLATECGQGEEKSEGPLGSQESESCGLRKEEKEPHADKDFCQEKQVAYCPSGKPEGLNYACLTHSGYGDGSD", "settings": "at 10 µM"}, "[4]": {"target": "Serine/threonine-protein kinase PLK1 (Homo sapiens, UniProt P53350)", "sequence (P53350 whole entry)": "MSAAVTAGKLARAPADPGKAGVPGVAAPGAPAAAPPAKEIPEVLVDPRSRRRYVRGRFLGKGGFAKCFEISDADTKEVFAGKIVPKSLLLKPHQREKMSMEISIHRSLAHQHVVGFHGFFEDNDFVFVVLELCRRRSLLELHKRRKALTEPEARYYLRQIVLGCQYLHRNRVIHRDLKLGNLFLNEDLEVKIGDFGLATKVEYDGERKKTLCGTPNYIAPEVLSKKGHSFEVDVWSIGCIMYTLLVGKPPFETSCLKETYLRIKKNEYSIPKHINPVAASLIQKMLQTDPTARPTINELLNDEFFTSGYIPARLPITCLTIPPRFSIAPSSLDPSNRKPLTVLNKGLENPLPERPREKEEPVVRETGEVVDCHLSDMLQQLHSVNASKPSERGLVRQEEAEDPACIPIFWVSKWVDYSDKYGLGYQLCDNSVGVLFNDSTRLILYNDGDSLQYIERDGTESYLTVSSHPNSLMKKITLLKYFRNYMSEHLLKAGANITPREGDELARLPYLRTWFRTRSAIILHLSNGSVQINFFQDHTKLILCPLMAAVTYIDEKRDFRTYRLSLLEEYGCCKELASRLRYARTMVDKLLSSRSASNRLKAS", "settings": "at 10 µM"}, "[5]": {"assay": "Selectivity interaction (KinomeScan (DiscoverX)) EUB0000045b CDPK1", "settings": "at 10 µM"}, "[6]": {"target": "Insulin-like growth factor 1 receptor (Homo sapiens, UniProt P08069)", "settings": "at 10 µM"}, "[7]": {"target": "Phosphatidylinositol 4-phosphate 5-kinase type-1 gamma (Homo sapiens) (UniProt O60331)", "sequence (O60331 whole entry)": "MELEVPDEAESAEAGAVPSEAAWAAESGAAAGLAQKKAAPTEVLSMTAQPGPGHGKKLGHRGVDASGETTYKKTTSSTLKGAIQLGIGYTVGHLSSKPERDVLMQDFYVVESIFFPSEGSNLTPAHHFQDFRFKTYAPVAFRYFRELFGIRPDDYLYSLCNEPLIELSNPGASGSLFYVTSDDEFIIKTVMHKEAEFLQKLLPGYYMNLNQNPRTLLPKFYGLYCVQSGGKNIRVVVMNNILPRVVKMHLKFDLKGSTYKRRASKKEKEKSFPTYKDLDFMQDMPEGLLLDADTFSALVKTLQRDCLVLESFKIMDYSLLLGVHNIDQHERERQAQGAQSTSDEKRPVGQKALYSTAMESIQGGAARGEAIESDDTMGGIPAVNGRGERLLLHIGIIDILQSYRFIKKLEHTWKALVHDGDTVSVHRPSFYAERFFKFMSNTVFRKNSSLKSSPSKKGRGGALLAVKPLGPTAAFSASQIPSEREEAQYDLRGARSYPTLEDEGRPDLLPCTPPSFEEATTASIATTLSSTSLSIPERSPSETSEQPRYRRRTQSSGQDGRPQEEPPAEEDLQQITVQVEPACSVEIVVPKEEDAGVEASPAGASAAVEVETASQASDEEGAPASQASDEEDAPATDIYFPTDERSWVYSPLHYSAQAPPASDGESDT", "assay": "Selectivity interaction (KinomeScan (DiscoverX)) EUB0001619a PIP5K1C", "settings": "at 1 µM"}, "[8]": {"target": "Serine/threonine-protein kinase 35 (Homo sapiens) (UniProt Q8TDR2)", "assay": "Selectivity interaction (KinomeScan (DiscoverX)) EUB0000655a STK35", "settings": "at 10 µM"}, "[9]": {"target": "T2, Serine/threonine-protein kinase D3 (Homo sapiens) (UniProt O94806)", "T2 sequence (whole entry)": "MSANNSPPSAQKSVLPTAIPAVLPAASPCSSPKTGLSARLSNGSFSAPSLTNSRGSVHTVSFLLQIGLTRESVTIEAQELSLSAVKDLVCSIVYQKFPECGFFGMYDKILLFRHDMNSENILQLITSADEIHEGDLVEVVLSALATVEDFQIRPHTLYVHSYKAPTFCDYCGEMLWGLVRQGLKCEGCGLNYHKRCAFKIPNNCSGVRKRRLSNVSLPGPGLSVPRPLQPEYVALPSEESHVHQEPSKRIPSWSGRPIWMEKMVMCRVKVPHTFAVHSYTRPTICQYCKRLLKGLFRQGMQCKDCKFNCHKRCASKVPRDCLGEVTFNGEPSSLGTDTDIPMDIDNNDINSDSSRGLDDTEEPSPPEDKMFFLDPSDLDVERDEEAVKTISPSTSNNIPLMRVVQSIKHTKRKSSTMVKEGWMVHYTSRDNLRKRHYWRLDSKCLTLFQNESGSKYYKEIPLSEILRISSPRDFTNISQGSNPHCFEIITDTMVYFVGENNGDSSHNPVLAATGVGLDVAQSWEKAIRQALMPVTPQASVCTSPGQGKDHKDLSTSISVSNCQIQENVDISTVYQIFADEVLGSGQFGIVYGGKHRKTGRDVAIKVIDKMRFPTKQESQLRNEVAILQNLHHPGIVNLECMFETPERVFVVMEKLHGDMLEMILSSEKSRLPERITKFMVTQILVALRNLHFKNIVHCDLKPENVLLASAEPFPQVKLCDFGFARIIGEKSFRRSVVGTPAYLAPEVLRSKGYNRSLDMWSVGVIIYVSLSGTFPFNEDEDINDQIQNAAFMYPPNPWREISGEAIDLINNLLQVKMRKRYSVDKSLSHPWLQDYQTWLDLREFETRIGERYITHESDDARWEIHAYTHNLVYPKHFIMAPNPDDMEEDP", "assay": "Selectivity interaction (KinomeScan (DiscoverX)) EUB0000655a PRKD3", "settings": "at 10 µM"}, "[10]": {"target": "T3, Casein kinase I isoform alpha-like (Homo sapiens) (UniProt Q8N752)", "T3 sequence (whole entry)": "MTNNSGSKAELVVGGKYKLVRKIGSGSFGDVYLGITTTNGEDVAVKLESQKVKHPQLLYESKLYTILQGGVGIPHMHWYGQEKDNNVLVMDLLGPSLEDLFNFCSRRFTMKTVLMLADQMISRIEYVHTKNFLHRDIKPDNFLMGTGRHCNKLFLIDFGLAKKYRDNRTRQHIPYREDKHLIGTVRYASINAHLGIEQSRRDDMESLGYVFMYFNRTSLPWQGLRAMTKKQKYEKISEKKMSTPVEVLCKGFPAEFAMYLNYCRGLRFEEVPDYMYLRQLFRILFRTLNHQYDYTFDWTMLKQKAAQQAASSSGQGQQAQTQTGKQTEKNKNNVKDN", "assay": "Selectivity interaction (KinomeScan (DiscoverX)) EUB0000655a CSNK1A1L", "settings": "at 10 µM"}, "[11]": {"target": "Tyrosine-protein kinase receptor UFO (Homo sapiens) (UniProt P30530)", "assay": "Selectivity interaction (SelectScreen profiling (Invitrogen)) EUB0000607a AXL", "settings": "at 2 µM"}, "[12]": {"target": "Serine/threonine-protein kinase RIO2 (Homo sapiens) (UniProt Q9BVS4)", "assay": "Selectivity interaction (KinomeScan (DiscoverX)) EUB0000607a RIOK2", "settings": "at 10 µM"}, "[13]": {"target": "Serine/threonine-protein kinase SIK3 (Homo sapiens) (UniProt Q9Y2K2)", "sequence (Q9Y2K2 whole entry, looked up)": "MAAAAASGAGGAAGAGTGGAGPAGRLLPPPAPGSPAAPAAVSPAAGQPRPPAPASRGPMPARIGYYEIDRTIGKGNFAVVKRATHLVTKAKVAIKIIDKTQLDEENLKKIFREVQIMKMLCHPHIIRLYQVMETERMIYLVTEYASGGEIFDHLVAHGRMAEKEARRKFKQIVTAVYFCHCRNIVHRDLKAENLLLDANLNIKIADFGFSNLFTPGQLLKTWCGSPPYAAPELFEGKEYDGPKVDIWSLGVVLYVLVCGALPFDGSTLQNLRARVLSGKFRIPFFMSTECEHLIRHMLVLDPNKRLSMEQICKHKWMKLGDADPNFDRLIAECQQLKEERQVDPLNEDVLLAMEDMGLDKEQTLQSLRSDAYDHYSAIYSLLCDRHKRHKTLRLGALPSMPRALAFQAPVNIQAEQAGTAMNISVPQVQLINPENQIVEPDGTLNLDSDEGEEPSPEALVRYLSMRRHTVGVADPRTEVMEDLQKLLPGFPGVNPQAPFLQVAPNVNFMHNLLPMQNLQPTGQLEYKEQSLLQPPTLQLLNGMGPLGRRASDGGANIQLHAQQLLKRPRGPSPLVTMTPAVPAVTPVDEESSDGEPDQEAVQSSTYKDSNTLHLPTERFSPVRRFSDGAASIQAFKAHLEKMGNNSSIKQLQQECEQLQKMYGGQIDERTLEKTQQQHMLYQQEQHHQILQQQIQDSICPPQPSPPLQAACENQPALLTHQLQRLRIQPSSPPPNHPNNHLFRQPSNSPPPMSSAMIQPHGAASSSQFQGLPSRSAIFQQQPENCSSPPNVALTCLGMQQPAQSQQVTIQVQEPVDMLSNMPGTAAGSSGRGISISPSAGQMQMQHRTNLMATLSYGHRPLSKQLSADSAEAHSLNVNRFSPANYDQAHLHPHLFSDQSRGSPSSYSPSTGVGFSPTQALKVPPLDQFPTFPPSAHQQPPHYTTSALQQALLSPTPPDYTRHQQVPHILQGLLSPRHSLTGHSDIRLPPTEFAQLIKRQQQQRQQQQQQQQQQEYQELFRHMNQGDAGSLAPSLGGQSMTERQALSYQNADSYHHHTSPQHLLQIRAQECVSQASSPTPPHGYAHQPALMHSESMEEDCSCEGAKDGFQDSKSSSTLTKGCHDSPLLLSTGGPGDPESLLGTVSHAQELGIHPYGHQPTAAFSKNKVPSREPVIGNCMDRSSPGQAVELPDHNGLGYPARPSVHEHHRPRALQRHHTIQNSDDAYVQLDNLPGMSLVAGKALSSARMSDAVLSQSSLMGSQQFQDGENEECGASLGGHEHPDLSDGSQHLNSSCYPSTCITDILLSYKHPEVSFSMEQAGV", "assay": "Selectivity interaction (ProQinase) EUB0000171b SIK3"}},
  "data": [
    {"smiles": "CCc1cc(Nc2nccc(-c3c(-c4ccc(OC)c(C(=O)Nc5c(F)cccc5F)c4)nc4ccccn34)n2)c(OC)cc1N1CCC(N2CCN(S(C)(=O)=O)CC2)CC1", "values": [
      {"measurement": "% of inhibition", "setting": "[1]", "value": 41, "unit": "%"}
    ]},
    {"smiles": "CC(=O)c1cc(-c2ccccc2OCC2CC2)c2ncccn12", "values": [
      {"measurement": "% of control", "setting": "[2]", "value": 80, "unit": "%"}
    ]},
    {"smiles": "CCN(CC)CCCCNc1ncc2cc(-c3cc(OC)cc(OC)c3)c(NC(=O)NC(C)(C)C)nc2n1", "values": [
      {"measurement": "% of control", "setting": "[3]", "value": 100, "unit": "%"},
      {"measurement": "% of control", "setting": "[4]", "value": 100, "unit": "%"}
    ]},
    {"smiles": "C=CC(=O)Nc1cc(-n2c(=O)ccc3cnc4ccc(-c5ccc(NS(C)(=O)=O)cc5)cc4c32)ccc1C", "values": [
      {"measurement": "% of control", "setting": "[5]", "value": 100, "unit": "%"}
    ]},
    {"smiles": "Cc1cc([C@@H](C)Nc2ccccc2C(=O)O)c2nc(N3CCOCC3)cc(=O)n2c1", "note": "[AZD-6482]", "values": [
      {"measurement": "% of control", "setting": "[6]", "value": 100, "unit": "%"}
    ]},
    {"smiles": "N#Cc1cccc(-c2c[nH]c3ncnc(N4CCOCC4)c23)c1", "values": [
      {"measurement": "% of control", "setting": "[7]", "value": 70, "unit": "%"}
    ]},
    {"smiles": "CN(C)CCOc1ccc(-c2nc(-c3ccncc3)c(-c3ccc4c(c3)CC/C4=N\\O)[nH]2)cc1", "values": [
      {"measurement": "% of control", "setting": "[8]", "value": 100, "unit": "%"},
      {"measurement": "% of control", "setting": "[9]", "value": 40, "unit": "%"},
      {"measurement": "% of control", "setting": "[10]", "value": 88, "unit": "%"}
    ]},
    {"smiles": "CNC(=O)Nc1ccc(-c2nc(N3CC4CCC(C3)O4)c3cnn(C4CCC5(CC4)OCCO5)c3n2)cc1", "values": [
      {"measurement": "% of inhibition", "setting": "[11]", "value": 2, "unit": "%"},
      {"measurement": "% of control", "setting": "[12]", "value": 90, "unit": "%"}
    ]},
    {"smiles": "C=CC(=O)Nc1cccc(C(=O)Nc2ccc(Nc3cc(-c4[nH]c(SC)nc4C)ccn3)cc2)c1", "values": [
      {"measurement": "% of control", "setting": "[13]; at 1 µM", "value": 65, "unit": "%"},
      {"measurement": "% of control", "setting": "[13]; at 5 µM", "value": 47, "unit": "%"}
    ]}
  ]
}
